Data on one compound can be found in ChEMBL document CHEMBL6103618, “Discovery of Novel Oxazolo[4,3-f]purine Derivatives as Antitumor Agents through PPIA Interaction” (J Med Chem, 2025).

The source made the active and inactive calls. The calls are words filed in the database; no cut-off is given here.

Data set [1] concerns HCT-116. Description: Induction of cell cycle arrest in human HCT-116 cells assessed as accumulation at S phase at 0.3 uM incubated for 48 hrs by PI staining based flow cytometry (reference value: 34.55 %). The data set is classed as functional. For orientation: In flow cytometry, cells or beads pass a laser one at a time.
The subject of data set [2] is HCT-116. Description: Induction of cell cycle arrest in human HCT-116 cells assessed as decrease in cyclin A2 level incubated for 48 hrs by Western blot analysis. The data set is classed as functional, cell-based. The note with it: dose 0.3-1.2 µM. (Immunoblotting shows a protein as a band on a membrane.)
For data set [3], the system named is HCT-116. Description: Inhibition of cell viability in human HCT-116 cells at 0.3 to 1.2 uM incubated for 48 hrs. To be noted: dose 0.3-1.2 µM. The data set is classed as functional, cell-based.
Data set [4] has as its system HCT-116. Nature of the data set: Effect on HSPA1A expression in human HCT-116 cells upto 6 uM incubated for 30 mins followed by pronase addition measured after 30 mins by DARTS assay. Type of data set: functional, cell-based.
In data set [5] the test system is HCT-116. Nature of the data set: Inhibition of colony formation in human HCT-116 cells harboring siNC at 1.2 uM incubated for 48 hrs followed by fresh media replacement without compound on every 72 hrs for 14 days by crystal violet staining based analysis. Type of data set: functional, cell-based.
Data set [6] deals with HCT-116. Description: Anti-proliferative activity against human HCT-116 cells harboring siPPIA-3 assessed as decrease in p-JNK level at 1.2 uM by Western blot analysis. Type of data set: functional, cell-based.
For data set [7], the system named is HCT-116. Description: Induction of intracellular ROS generation in human HCT-116 cells harboring siNC at 1.2 uM by flow cytometry (reference value: 8.22 %). The data set is classed as functional.
The nature of data set [8]: Acute toxicity in BALB/c mouse assessed as lethal dose administered intraperitoneally measured for 14 days. The note with it: in vivo, route ip, time 14 day.

What is called LD50 is the dose expected to kill half of the subjects tested. As for `C=C(C(=O)OC)N1c2nc(Cl)nc(Cl)c2N2C(c3ccccc3F)OC(C(=O)OCC)(C(=O)OCC)C12` (racemic), the Activity was 27.89% in the data set on HCT-116 [1], “Dose-dependent-effect” with HCT-116 [2], “No effect” in the data set with HCT-116 [4] and 22.9% with HCT-116 [7]. In addition, the inhibition result with HCT-116 [3] and in the data set on HCT-116 [5] was “Active” each time. Besides, the outcome with HCT-116 [6] was inactive. The median lethal dose (LD50) at 336 h in data set [8] was found to be 453 mg/kg.
